Data reported in article PMC8671752, “Effects of ex vivo Extracorporeal Membrane Oxygenation Circuits on Sequestration of Antimicrobial Agents” (Frontiers in Medicine, 2021).
Marks after values point to notes of the source that are not given here. Each block holds one compound with its values, some of them ahead of it. Starred links: 1 amine or outer side, 2 acyl side, 3 side chain; linkers in the order of their positions; H or OH if unused. Positions of bridges follow the written chain, without caps; N, C: chain ends. Non-standard residues stand in square brackets, D forms with d. Residues, ends and D or L forms follow the SMILES beside them. *: point of attachment. hTyr(3S-OH,4S-OH,3'-OSO3H) = N[C@H](C(=O)O)[C@H](O)[C@@H](O)c1ccc(O)c(OS(=O)(=O)O)c1; Orn(4R-OH,5R-OH) = O=C([C@H](C[C@@H](O)[C@@H](O)N[*:3])N[*:1])[*:2]; Pro(3S-OH,4S-Me) = C[C@H]1CN[C@H](C(=O)O)[C@H]1O; X2 = CCCCCOc1ccc(-c2cc(-c3ccc(C(=O)*)cc3)no2)cc1; Gln(3R-OH) = NC(=O)C[C@@H](O)[C@H](N)C(=O)O; Hyp = O=C(O)[C@@H]1C[C@@H](O)CN1; X1 = CC[C@H](C)CCCCC(=O)*; Dab = NCC[C@H](N)C(=O)O

Legend:
[1] = ref DrugBank [12]; cited from earlier work
[2] = cited from earlier work
[3] = Control group: spontaneous drug degradation in whole blood at 37°C; settings: HPLC-MS/MS; for Drug recovery (%) from control group at 24 h: controls of both experiments, whole human blood taken 2 min after injection, not passed through circuit, relative to 2 min baseline; for Drug recovery (%) from control group at 24 h / Mean drug recovery, Control-24 h (Maquet experiment) / Drug recovery, Control-24 h (Sorin experiment): water bath 37°C 24 h; for Drug recovery (%) from control group at 24 h / Mean drug recovery, Control-3 h (Maquet experiment) / Mean drug recovery, Control-6 h (Maquet experiment) / Mean drug recovery, Control-12 h (Maquet experiment) / Mean drug recovery, Control-24 h (Maquet experiment): mean (SD), SD; for Mean drug recovery, Control-3 h (Maquet experiment) / Mean drug recovery, Control-6 h (Maquet experiment) / Mean drug recovery, Control-12 h (Maquet experiment) / Mean drug recovery, Control-24 h (Maquet experiment): control of Maquet experiment, n=2; for Mean drug recovery, Control-3 h (Maquet experiment) / Mean drug recovery, Control-6 h (Maquet experiment) / Mean drug recovery, Control-12 h (Maquet experiment) / Mean drug recovery, Control-24 h (Maquet experiment) / Drug recovery, Control-6 h (Sorin experiment) / Drug recovery, Control-24 h (Sorin experiment) / Drug recovery, Control-3 h (Sorin experiment): whole human blood, no circuit, % of 2 min concentration; for Mean drug recovery, Control-3 h (Maquet experiment) / Drug recovery, Control-3 h (Sorin experiment): water bath 37°C 3 h; for Mean drug recovery, Control-6 h (Maquet experiment) / Drug recovery, Control-6 h (Sorin experiment): water bath 37°C 6 h; for Mean drug recovery, Control-12 h (Maquet experiment): water bath 37°C 12 h; for Drug recovery, Control-6 h (Sorin experiment) / Drug recovery, Control-24 h (Sorin experiment) / Drug recovery, Control-3 h (Sorin experiment): control of Sorin experiment, single measurement
[4] = cited from earlier work; for Lipophilicity (log P): ref DrugBank [12]
[5] = Drug recovery in blood-primed ex vivo ECMO circuits (average of Maquet and Sorin); settings: for Drug recovery (%) from circuits at 24 h: average over Maquet and Sorin circuits, closed loop primed with fresh whole human blood, 37°C, pH 7.25–7.55, 4–5 L/min, plasma HPLC-MS/MS, relative to 2 min baseline, mean (SD), SD
Protocol: (§1) Four healthy volunteers were recruited. After obtaining informed consent, 402 ml of blood was collected through the cubitus vein using disposable blood bags (Fresenius Kabi), of which 2 ml was used for a routine blood examination. Sorin (LivaNova, London, United Kingdom) and Maquet (Getinge AB, Hirrlingen, Germany) ECMO circuits were used to establish self-circulation and were primed with fresh whole human blood. After the circulation stabilized, the drugs were added to the circuit. Blood samples were collected at different time points, and the drug concentration was measured to observe the recovery rate of different drugs in the ECMO cycle.
(§2) Each circuit consisted of a membrane oxygenator, centrifugal pump, cannula, heat exchanger, and PVC tubing. The materials of each ECMO component are shown in Supplementary Material 1. A reservoir bag containing 30 mL of blood was used to construct a bypass to maintain the pressure of the circuit (Figure 1). Eight hundred milliliters of fresh whole human blood (<1 h old) was used to prime the circuit. Heparin (5,000 U) was added to the circuits to prevent clotting.
(§3) The circuit flow rate was controlled at 4–5 L/min. Circuit temperature was maintained at 37°C.
(§4) These bolus doses were selected to produce concentrations similar to clinical concentrations. The order of administration was determined according to the half-life from long to short. According to the drug instructions, none of the drugs interact with each other ([12]). Two milliliters of physiological saline solution (0.9%) was used to flush the tube after injection of all drugs to avoid drug loss at the entrance of administration.

[6] = Drug recovery in the Sorin ECMO circuit; settings: phosphorylcholine-coated circuit, whole human blood, 37°C, HPLC-MS/MS, % of 2 min concentration, single measurement
Protocol: as §1, §2, §3, §4
(§5) In this study, two experiments were carried out and 26 blood samples were analyzed. The first experiment was conducted with the Maquet ECMO circuit. […] The blood samples collected at each time point were measured twice due to the uncertainty of the initial experiment.

[7] = Drug recovery in the Maquet ECMO circuit; settings: Bioline-coated circuit, whole human blood, 37°C, HPLC-MS/MS, % of 2 min concentration, mean (SD), n=2
Protocol: as §1, §2, §3, §4, §5

[8] = cited from earlier work; remark: listed apart in the source

SMILES: CC[C@H](C)C[C@H](C)CCCCCCCCC(=O)N[C@H]1C[C@@H](O)[C@@H](NCCN)NC(=O)[C@@H]2[C@@H](O)CCN2C(=O)[C@H]([C@H](O)CCN)NC(=O)[C@H]([C@H](O)[C@@H](O)c2ccc(O)cc2)NC(=O)[C@@H]2C[C@@H](O)CN2C(=O)[C@H]([C@@H](C)O)NC1=O [Caspofungin, caspofungin]
- Protein binding rate (%) [1]: 97%
- Average drug recovery at 24 h in the ECMO circuit ([2]; ex vivo experiment by Shekar et al.): 56%
- Drug recovery (%) from control group at 24 h [3]: 85.24 (7.93) %
- Lipophilicity (log P) [4]: −2.798
- Drug recovery (%) from circuits at 24 h [5]: 83.26 (6.17) %

- Drug recovery, Sorin circuit, 5 min [6]: 100%
- Drug recovery, Sorin circuit, 15 min [6]: 100%
- Drug recovery, Sorin circuit, 30 min [6]: 99%
- Drug recovery, Sorin circuit, 1 h ([6]; 1 h): 102%
- Drug recovery, Sorin circuit, 6 h [6]: 98%
- Drug recovery, Sorin circuit, 12 h [6]: 92%
- Drug recovery, Sorin circuit, 24 h [6]: 75%
- Mean drug recovery, Control-3 h (Maquet experiment) [3]: 100% (0%)
- Mean drug recovery, Control-6 h (Maquet experiment) [3]: 99% (0%)
- Mean drug recovery, Control-12 h (Maquet experiment) [3]: 100% (2%)
- Mean drug recovery, Control-24 h (Maquet experiment) [3]: 98% (2%)
- Drug recovery, Control-6 h (Sorin experiment) [3]: 98%
- Drug recovery, Control-24 h (Sorin experiment) [3]: 98%
- Drug recovery (%) from control group at 24 h [3]: 98.30 (1.17) %
- Mean drug recovery, Maquet circuit, 5 min [7]: 102% (3%)
- Mean drug recovery, Maquet circuit, 15 min [7]: 100% (4%)
- Mean drug recovery, Maquet circuit, 30 min [7]: 100% (2%)
- Mean drug recovery, Maquet circuit, 1 h [7]: 102% (1%)
- Mean drug recovery, Maquet circuit, 3 h [7]: 98% (2%)
- Mean drug recovery, Maquet circuit, 6 h [7]: 99% (1%)
- Mean drug recovery, Maquet circuit, 12 h [7]: 91% (5%)
- Mean drug recovery, Maquet circuit, 24 h [7]: 81% (1%)
SMILES: CCN1CCN(C(=O)N[C@@H](C(=O)N[C@@H]2C(=O)N3C(C(=O)O)=C(CSc4nnnn4C)CS[C@H]23)c2ccc(O)cc2)C(=O)C1=O [Cefoperazone, cefoperazone]
- Lipophilicity (log P) [4]: −0.74

- Drug recovery, Sorin circuit, 3 h [6]: 100%
- Drug recovery, Sorin circuit, 6 h [6]: 92%
- Drug recovery, Sorin circuit, 12 h [6]: 74%
- Drug recovery, Sorin circuit, 24 h [6]: 47%
- Mean drug recovery, Control-3 h (Maquet experiment) [3]: 97% (4%)
- Mean drug recovery, Control-6 h (Maquet experiment) [3]: 91% (9%)
- Mean drug recovery, Control-12 h (Maquet experiment) [3]: 77% (8%)
- Mean drug recovery, Control-24 h (Maquet experiment) [3]: 65% (10%)
- Drug recovery, Control-3 h (Sorin experiment) [3]: 97%
- Drug recovery, Control-6 h (Sorin experiment) [3]: 102%
- Drug recovery, Control-24 h (Sorin experiment) [3]: 95%
- Drug recovery (%) from control group at 24 h [3]: 74.84 (19.10) %
- Drug recovery (%) from circuits at 24 h [5]: 45.37 (3.58) %
- Average loss at 24 h in the circuits ([5]; loss, average of Maquet and Sorin circuits): 55%
- Mean drug recovery, Maquet circuit, 5 min [7]: 100% (0%)
- Mean drug recovery, Maquet circuit, 15 min [7]: 100% (1%)
- Mean drug recovery, Maquet circuit, 30 min [7]: 101% (4%)
- Mean drug recovery, Maquet circuit, 1 h [7]: 98% (0%)
- Mean drug recovery, Maquet circuit, 3 h [7]: 93% (2%)
- Mean drug recovery, Maquet circuit, 6 h [7]: 83% (7%)
- Mean drug recovery, Maquet circuit, 12 h [7]: 64% (2%)
- Mean drug recovery, Maquet circuit, 24 h [7]: 45% (5%)
SMILES: C[C@@H](O)[C@H]1C(=O)N2C(C(=O)O)=C(S[C@@H]3CN[C@H](C(=O)N(C)C)C3)[C@H](C)[C@H]12 [Meropenem, meropenem]
- Lipophilicity (log P) [4]: −0.6

SMILES: CCCCCOc1ccc(-c2cc(-c3ccc(C(=O)N[C@H]4C[C@@H](O)[C@@H](O)NC(=O)[C@@H]5[C@@H](O)[C@@H](C)CN5C(=O)[C@H]([C@H](O)CC(N)=O)NC(=O)[C@H]([C@H](O)[C@@H](O)c5ccc(O)c(OS(=O)(=O)O)c5)NC(=O)[C@@H]5C[C@@H](O)CN5C(=O)[C@H]([C@@H](C)O)NC4=O)cc3)no2)cc1 [Micafungin, micafungin] (X2-[Orn(4R-OH,5R-OH)]T[Hyp][hTyr(3S-OH,4S-OH,3'-OSO3H)][Gln(3R-OH)][Pro(3S-OH,4S-Me)]; lactam 1-C)
- Drug recovery, Sorin circuit, 24 h [6]: 66.85 (-)^* %
- Protein binding rate (%) [1]: > 99%
- Average drug recovery in the control group at 24 h ([2]; control group, ex vivo study by Watt et al.): 57%
- Average drug recovery in the ECMO loop at 24 h ([2]; ex vivo study by Watt et al.): 26–43%
- Drug recovery, Control-24 h (Sorin experiment) [3]: 98.82 (-)^* %
- Lipophilicity (log P) [4]: −1.5
- Vd in infants on ECMO, higher than in infants not on ECMO ([8]; infants on ECMO versus infants not on ECMO): 20–90%

SMILES: CC[C@H](C)CCCCC(=O)N[C@@H](CCN)C(=O)N[C@H](C(=O)N[C@@H](CCN)C(=O)N[C@H]1CCNC(=O)[C@H]([C@@H](C)O)NC(=O)[C@H](CCN)NC(=O)[C@H](CCN)NC(=O)[C@H](CC(C)C)NC(=O)[C@@H](Cc2ccccc2)NC(=O)[C@H](CCN)NC1=O)[C@@H](C)O [Polymyxin B, polymyxin B] (X1-[Dab]T[Dab][Dab][Dab][dF]L[Dab][Dab]T; lactam 4-C)
- Drug recovery, Sorin circuit, 5 min [6]: 118%
- Drug recovery, Sorin circuit, 15 min [6]: 86%
- Drug recovery, Sorin circuit, 30 min [6]: 84%
- Drug recovery, Sorin circuit, 3 h [6]: 117%
- Drug recovery, Sorin circuit, 6 h [6]: 74%
- Drug recovery, Sorin circuit, 12 h [6]: 74%
- Drug recovery, Sorin circuit, 24 h [6]: 61.66 (-)^* %
- Protein binding rate (%) [1]: 79–92%
- Drug recovery, Control-3 h (Sorin experiment) [3]: 91%
- Drug recovery, Control-6 h (Sorin experiment) [3]: 93%
- Drug recovery, Control-24 h (Sorin experiment) [3]: 60.10 (-)^* %
- Lipophilicity (log P) [4]: −4.861

- Drug recovery (%) from control group at 24 h [3]: 144.54 (2.31) %
- Drug recovery (%) from circuits at 24 h [5]: 100.03 (13.68) %
SMILES: CN(C)c1cc(NC(=O)CNC(C)(C)C)c(O)c2c1C[C@H]1C[C@H]3[C@H](N(C)C)C(O)=C(C(N)=O)C(=O)[C@@]3(O)C(O)=C1C2=O [Tigecycline, tigecycline]
- Lipophilicity (log P) [4]: 0.8
- Average Vd in critically ill patients ([8]; critically ill patients, no reference given): 398 L

SMILES: C[C@@H](c1ncncc1F)[C@](O)(Cn1cncn1)c1ccc(F)cc1F [Voriconazole, voriconazole]
- Lipophilicity (log P) [4]: 2.561

SMILES: CC(C)c1cccc(C(C)C)c1O [propofol]
- octanol/water partition (log P) [4]: 4.0
